Experimental data: paper PMC6013238, “Development of novel NEMO-binding domain mimetics for inhibiting IKK/NF-κB activation” (PLoS Biology, 2018)
Several values for one entry are separate records, joined by “and”; a condition that tells them apart may be missing. Equal entries are not always repeated. Where two headings read alike, the source gives them in different places.

Legend:
[1] = Plasma and tissue concentrations 2 h after a single i.p. injection; assay type: in vivo, mouse; details: for concentration at 2 h: male, C57BL/6J, mouse, ip, 10 mg/kg
Method: To determine the stability of the NBD mimetics in vivo, their levels were measured in the plasma of mice 2 h post i.p. injection with 10 mg/kg of each compound. The concentration of SR12460 was very high in plasma (>6.5 μg/mL; 20 μM), while levels in brain, muscle, spleen, and liver were lower. SR12343 and SR12454 had lower plasma concentrations, with SR12343 showing a higher level in liver and SR12454 showing higher concentrations in muscle and spleen. The level of SR11481 was undetectable in plasma and tissues (Fig 6A).
(§1) Fig 6 Newly identified NBD mimetics suppress LPS-induced acute inflammation in vivo. (A) The bioavailability property of SR12460, SR12343, SR12454, and SR11481. Concentrations of NBD mimetics were determined in plasma, brain, muscle, spleen, and liver 2 h post a single i.p. injection of 10 mg/kg of drugs; n = 3 per group. (B) Shown is the model to induce LPS-mediated acute inflammation and the treatment regimen with NBD mimetics. Mouse image via http://www.clker.com/clipart-mice-blank.html (copyright-free). (C) NBD mimetics suppressed LPS-induced acute inflammation in liver and lung by down-regulating NF-κB target gene expression. Vehicle, SR12343, SR12460, and 8K-NBD peptide were dosed at 10 mg/kg 30 min prior to the LPS treatment. Acute inflammation was induced by i.p. injection of 10 mg/kg LPS. Lung and liver were collected 2–4 h post injection, and mRNA was extracted for qRT-PCR analysis. (D, E) Western blot analysis was performed to probe for the expression of p-IκBα and COX-2 at protein level in liver and lung tissues. (F) Serum levels of IL-6 were determine by ELISA. n = 3–8 each group. *P < 0.05, **P < 0.01. Underlying data can be found in S1 Data. COX-2, cyclooxygenase 2; IL-6, interleukin 6; i.p., intraperitoneal; LPS, lipopolysaccharide; NBD, NEMO-binding domain; n.d., nondetectable; NEMO, NF-κB essential modulator; NF-κB, nuclear factor κB; qRT-PCR, quantitative real-time polymerase chain reaction. TEXT PRINTED IN THE PICTURE: (A) SR11481: Concentration (ng/ml): n.d. (plasma)
The pharmacokinetic profile of the NBD mimetics was determined in male C57BL/6J mice (n = 3). The drugs were formulated in 10:10:80 of DMSO:Tween 80:water and were dosed by i.p. injection at a final dose of 10 mg/kg. Blood, brain, muscle, spleen, and liver were collected 2 h post treatment and were analyzed by mass spectrometry by following a protocol previously described.

[2] = test system: NF-κB target genes; experiment: LPS-induced acute inflammation, qRT-PCR of NF-κB target genes in lung and liver; assay type: in vivo, mouse
Method: as §1
To determine their NF-κB inhibitory effects in vivo, SR12343 and SR12460 were tested in an acute model of LPS-induced systemic endotoxemia. C57BL/6J mice were pretreated with vehicle control, 8K-NBD peptide, or NBD mimetics at 10 mg/kg for 30 min, followed by LPS induction at 10 mg/kg (Fig 6B). Lung and liver were harvested 2–4 h post treatment for qRT-PCR analysis of NF-κB target genes. […] Despite lower plasma and tissue concentrations of SR12343 compared to SR12460, its inhibition of NF-κB/IKK in liver and lung were greater than that of SR12460 (Fig 6C). Similarly, acute treatment with SR12343 also affected the LPS-induced expression of NF-κB target genes at protein level. The extent of phosphorylation of IκBα and the levels of COX-2 were reduced in lung and liver tissues treated with SR12343 (Fig 6D and 6E). […] However, no significant differences in lung histopathology were observed. Finally, there was a slight reduction in the number of white blood cells and neutrophils in the SR12343-treated group (Table 2).
LPS (strain O111:B4) was prepared in PBS at a sublethal dose of 10 mg/kg. Female WT mice 8 to 10 wk old (20–30 g) were dosed by i.p. injection with vehicle, NBD peptide (10 mg/kg), or small molecules (10 mg/kg) for 30 min, followed by i.p. injection of saline (1 mL/kg) or LPS (10 mg/kg). Mice were euthanized 2 to 4 h post treatment, and lung and liver tissues were collected for further analysis.
Snap-frozen tissues were preserved in RNAlater RNA stabilization solution (ThermoFisher). Total RNA was extracted from cells or tissues by using TRIZOL reagent (Life Technologies), and 1,500 ng of mRNA was subjected to synthesis of cDNA using SuperScript VILO cDNA synthesis kit. qRT-PCR was performed in a StepOnePlus Real-Time PCR system using Platinum SYBR Green qPCR SuperMix-UDG (ThermoFisher). Target gene expression was calculated using the comparative CT method (ΔΔCT) by normalizing to an internal control gene Actb (β-actin). […]

[3] = 2 h post single i.p. 10 mg/kg, single mice
[4] = plasma, 2 h post single i.p. 10 mg/kg, single mice, read-out: Concentration in plasma
[5] = spleen, 2 h post single i.p. 10 mg/kg, single mice, read-out: Concentration in spleen
[6] = Fig 6C, 10 mg/kg 30 min before LPS 10 mg/kg i.p., 2-4 h, single mice

SMILES | Concentration in brain [1, 3] | Concentration in plasma [1, 3] | Concentration in spleen [1, 3] | concentration at 2 h ([1]; brain, 2 h post single i.p. 10 mg/kg, single mice, read-out: Concentration in brain) [ng/mL] | concentration at 2 h [1, 4] [ng/mL] | concentration at 2 h [1, 5] [ng/mL] | NF-κB transcriptional activity in lung (iNOS, IκBα, COX-2, IL-6) ([2]; 10 mg/kg, LPS 10 mg/kg) | ikBa mRNA in liver (qRT-PCR, relative to vehicle) [2, 6] | ikBa mRNA in lung (qRT-PCR, relative to vehicle) [2, 6] | Concentration in liver [1, 3] | Concentration in muscle [1, 3] | concentration at 2 h ([1]; liver, 2 h post single i.p. 10 mg/kg, single mice, read-out: Concentration in liver) [ng/mL] | concentration at 2 h ([1]; muscle, 2 h post single i.p. 10 mg/kg, single mice, read-out: Concentration in muscle) [ng/mL] | concentration at 2 h ([1]; plasma, 2 h post i.p. 10 mg/kg, read-out: Concentration in plasma) | iNOS mRNA in lung (qRT-PCR, relative to vehicle) [2, 6]
O=C(CNc1ccc(Cl)cn1)NCCc1cccc(Br)c1 [SR12343] | 45.7 ng/mL and 29.2 ng/mL | 14.7 ng/mL and 8.4 ng/mL | 26.6 ng/mL and 25.1 ng/mL | 31.8 | 14.3 | 24.7 | significantly inhibit | 1.072 and 1.242 and 1.317 and 1.467 and 0.7748 and 0.7346 and 1.371 | 0.8689 and 0.6292 and 0.6865 and 0.9681 and 0.6797 and 1.015 and 0.7177 | – | – | – | – | – | –
O=C(CNCCc1cc(F)cc(F)c1)Nc1ccc(Cl)cn1 [SR12460] | – | 5470 ng/mL and 7970 ng/mL | 905 ng/mL and 1250 ng/mL | – | 6520 | 930 | – | – | 0.8864 and 1.179 and 0.7265 and 0.7577 and 0.6496 and 0.9355 and 0.7819 | 265 ng/mL and 390 ng/mL | 602 ng/mL and 852 ng/mL | 442 | 846 | > 6500 ng/mL and 20 µM | 0.4025 and 0.5396 and 0.4809 and 0.7846 and 0.6512 and 0.5854 and 0.4587 and 0.5387
